“Also recorded” adds a separate entry of the source.

The test system of assay [1] is Dnmt3b. The assay is described as follows: Dnmt3b protein level in nuclear fractions of E11.5 AGM cells. The assay is classed as cell-based, mouse. As for the experimental part:
RNA-sequencing analyses were performed to measure gene expression patterns in mouse AGM treated with cyclic strain or pharmacological modulators. Using computational algorithms, hierarchical clustering was performed of differentially expressed genes as well as measured their overrepresented biological processes and pathways. Gene expression clusters of differentially expressed genes were analyzed and their mean expression level across cell populations compared. Next, Venn comparison of up- and down-genes was constructed to analyze candidate(s) important for cyclic strain- or pharmacological modulator(s)-mediated the endothelial-to-HSC transition. Furthermore, Dnmt3b and Dnmt3a protein expressions were analyzed in nuclear fractions of mouse AGM cells using EqiQuick assay kits. Data are presented as mean±s.d. unless otherwise noted. Statistical analyses were performed by paired or un-paired Student's t-tests. Significance was set at P<0.05.
Nuclear extracts from AGM explants were harvested using an EpiQuik Nuclear Extraction Kit (Epigentek Group Inc.). Dnmt3b and Dnmt3a protein levels were analyzed using a colorimetric EpiQuik Assay Kit (Epigentek Group Inc.), according to the manufacturer's instructions. Concentration of Dnmt3b and Dnmt3a is relative to 1 μg of nuclear extract proteins.

Assay [2] relates to human PSC (DF19-9-7T)-derived hCD34+ hematopoietic cells. Put plainly: Transplantation of human PSC-derived hCD34+ hematopoietic cells in humanized mice. It counts as in vivo.
The test system of assay [3] is E11.5 AGM-derived HSCs. Put plainly: Serial transplantation of E11.5 AGM-derived HSCs into irradiated mice. It counts as in vivo, mouse. As for the experimental part:
Pulsating blood vessels like conditions were stimulated in vitro using Flexcell FX-4000 machine. To analyze roles of pharmacological targets in regulating the endothelial-to-HSC transition, mouse embryo-derived AGM or whole mouse embryo were exposed ex vivo with biomechanical stretching, chemicals, or drugs. Next, hematopoietic colony formation assays were performed by incubating mouse AGM-derived cells in StemCell M3434 media for seven days. Serial transplantation of AGM-derived HSCs in lethally irradiated SJL mice were performed. The stem cell frequency upon biomechanical stretching was analyzed using a limiting dilution assay. To characterize properties of AGM-HSC-derived blood cells in primary transplants, percentage chimerism and reconstitution was measured using FACS, globin transcripts were analyzed using quantitative reverse transcriptase-PCR, myeloperoxidase amount was measured using PicoKine ELISA kit, TCR-β rearrangement was analyzed using PCR for TCR-β locus, pre-immune IG detection was analyzed using Thermo-Fisher Mouse Ig Isotyping kit, and delayed-type hypersensitivity was analyzed by injecting sheep RBC (Rockland Immunochemicals) in the footpad of pre-sensitized mice.
For primary transplantation, three-embryo equivalents of untreated or treated (cyclic strain or 25 μM Yoda1) AGMs plus splenic helper cells (˜500,000 per mouse) were injected into lethally irradiated (split dose […]) Cd45.1 (SJL) mice by retro-orbital injection. For secondary and tertiary transplants, the bone marrow was isolated (legs, arm, pelvic bone, spine, sternum) from the transplanted mice. The bone marrow was loaded on a Ficoll gradient (Histopaque®-1083, Sigma-Aldrich), and the cells from the buffy coat incubated with biotin-conjugated lineage antibodies and streptavidin microbeads (Miltenyi Biotec). Next, the lineage negative (Lin^−) cells were separated with MACS LS Columns (Miltenyi Biotec), and the donor Cd45.2 Lin^−Sca1+c-Kit^+ (LSK) cells sorted with a MoFlo Beckman Coulter sorter. Subsequently, the sorted Cd45.2 LSK cells were mixed with Cd45.1 splenic helper cells (˜500,000 per mouse) and transplanted into Cd45.1 irradiated (split dose […]) SJL mice by retro-orbital injection.
AGM cells from explants and ex vivo were stained with Sca1-Pacific-Blue (E13-161.7, Biolegend) and Flk1-APC-Cy7 (Avas 12α1, BD). Blood from transplanted mice was stained with the following antibody cocktail: Cd45.2-Pacific-Blue (104, Biolegend), Cd45.1-FITC (A20, Biolegend), Cd3-PE (145-2C11, Biolegend), Cd8-PE (53-6.7, Biolegend), Mac1-APC (M1/70, Biolegend), Gr1-APC (108412, Biolegend), Cd19-APC-CY7(6D5, Biolegend), B220-APC-CY7 (RA3-6B2, Biolegend). […]

For the compound `Clc1cccc(Cl)c1CSc1nnc(-c2cnccn2)s1` [Yoda1, 2-[5-[[(2,6-Dichlorophenyl)methyl]thio]-1,3,4-thiadiazol-2-yl]-pyrazine], the Dnmt3b protein expression entry in assay [1] is “specifically stimulates Dnmt3b protein expression levels”. Besides, the “percentage of bone marrow reconstitution to human CD33+, CD3+ and CD19+ cells” value in assay [2] (primary transplant) is recorded as “stimulates the formation of hCD34+ hematopoietic cells that reconstitute multi-lineage blood”. Also, in assay [2] (primary transplant, after 8-10 weeks), the “percentage of bone marrow chimerism” value was “enhances the formation of engraftable human CD34+ cells; also recorded: enhances the formation of engraftable hCD34+ cells”. Moreover, the “percentage peripheral blood reconstitution to human CD33+, CD3+ and CD19+ cells” value in assay [2] (secondary transplant) is “stimulates the formation of human LT-HSCs that reconstitute multi-lineage blood upon serial transplantation”. The “percentage of peripheral blood chimerism” value in assay [2] (secondary transplant, after 16 weeks) is given as “enhances the formation of self-renewing LT-HSCs”. The “percentage reconstitution to myeloid cells, T-cells and B-cells” value in assay [3] (primary transplant, week 16) was “stimulates the formation of HSCs that reconstitute to the blood”; in assay [3] (secondary transplant, week 12), “produces HSCs that can serially reconstitute to the blood”. Moreover, the “percentage peripheral blood chimerism” value in assay [3] (primary transplant, weeks 8-16, treated E11.5 AGM donor cells) was “stimulates the formation of HSCs”; in assay [3] (secondary transplant, weeks 8-12), “produces HSCs that have serial engraftment and self-renewal capacities”.

The values are drawn from US20230041065A1, “METHODS FOR GENERATING HEMATOPOIETIC STEM CELLS” (The Brigham and Women`s Hospital, Inc., priority 2019, published 2023).
